Assay results reported in PubChem BioAssay AID2060362 (Molecular Pharmacology Branch, DTP, NCI, 2025).

System: 128128-338-R-J1-PDC spheroids, viability % test/control
Experiment: Anticancer human tumor 128128-338-R-J1-PDC patient-derived melanoma cell line growth inhibition [TAK]
Settings: spheroids with HUVEC and MSC; for IC50: curve of first compound; for viability, T/C: stronger effect = lower value; active means viability on the fitted dose curve at most 10% of control; inactive means the rest
Text: Combinatorial screen of targeted agents with TAK-243 and ipatasertib in multi-cell type tumor spheroids
A high-throughput screen of multi-cell type tumor spheroids was designed to identify active combinations of targeted small molecules and TAK-243 or ipatasertib. Complex spheroids include a stromal component modeled by human endothelial cells (HUVEC) and fibroblasts modeled by human mesenchymal stem cells (MSCs). The concentration ranges selected for each drug and investigational agent were based upon clinically achievable concentrations if the clinical Cmax of the agent was known.
Compounds. The drugs and investigational agents: TAK-243 (785004), ipatasertib (767898), everolimus (733504), selumetinib (741078), bortezomib (756655), trametinib (758246), ixazomib (758254), vemurafenib (761431), dabrafenib (764134), sapanisertib (764658), alpelisib (765974), and copanlisib (816437), were obtained from the National Cancer Institute (NCI) Developmental Therapeutics Program Chemical Repository. The FDA-approved anticancer drug set is available from the NCI Developmental Therapeutics Program. […] The stock solutions were prepared in dimethyl sulfoxide (DMSO, Sigma-Aldrich, St. Louis, MO, cat. D2650) at 800-fold the tested concentration and stored at -70 degrees C prior to their use. All drugs and investigational agents were tested over a range starting from a high concentration at or near the clinical Cmax and decreasing in half-log increments. If the clinical Cmax for an agent had not been determined, the highest concentration tested was 10 microM.
NCI60 Cell Culture. NCI60 cell lines were obtained from the NCI Developmental Therapeutics Program Tumor Repository. For each lot of cells, the Repository performed Applied Biosystems AmpFLSTR Identifiler testing with PCR amplification to confirm consistency with the published Identifier STR profile for each cell line. Cells were kept in continuous culture for no more than 20 passages. The optimal seeding densities for each of the cell lines at each time point assessed were determined prior to performing the concentration response studies. Briefly, the NCI60 human tumor lines were grown as monolayers in RPMI 1640 medium supplemented with 10% FBS and 2 mmol/L L-glutamine.
An additional 2 lines were from the NCI60 cell line panel including melanomas, MALME-3M and SK-MEL-2. Pooled donor human umbilical vein endothelial cells (HUVEC, Lonza, cat. CC-2519) and human mesenchymal stem cells (hMSC, Lonza, cat. PT-2501) were purchased from Lonza (Walkersville, MD).
PDMR cell lines were grown in complete medium (DC medium): Dulbecco's modified Eagle's medium (DMEM)/F12 supplemented with 5% fetal bovine serum (FBS), 2 mM L-glutamine, 100 U/mL penicillin and 100 µg/ml streptomycin, 0.4 µg/ml hydrocortisone, 10 ng/ml epidermal growth factor (EGF) recombinant human protein, 24 µg/mL adenine, and 0.1 mg/mL primocin. During culture from frozen stock vials, PDMR cells were cultured in the same medium containing 10 µM Y-27632 (see Table 3). The PDCs were cultured in complete DMEM/F12 media without 10 microM Y-27632 dihydrochloride for at least two passages prior to the screen. The pooled donor HUVEC and hMSC were cultured in endothelial cell growth medium 2 (PromoCell, Heidelberg, Germany, cat. C-22011) and mesenchymal stem cell growth medium 2 (PromoCell, cat. C-28009), respectively. For all experiments, HUVEC and hMSC were used at passages </=5.
For the pre-screen, cell seeding densities were determined from a titration spanning the range from 5,000 to 313 cells per well. The mct-spheroids including 60% malignant cells, 25% HUVEC and 15% MSC dispensed as a mixture into U-bottom Ultra-Low Attachment 384-well plates (Corning, NY)
High-throughput Drug Combination Screening.
Prior to their inoculation into 384-well plates, malignant cells, HUVEC, and hMSC were removed from T flasks using TrypLE express (Thermo Fisher Scientific, cat. 12605036) and harvested by centrifugation for 5 min at 233 x g. […]
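Further: spheroids exposed to compounds for 7 days.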
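Wherever viability, T/C is given: 100% = DMSO vehicle wells.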

CC(C)(C)c1nc(-c2cccc(NS(=O)(=O)c3c(F)cccc3F)c2F)c(-c2ccnc(N)n2)s1 + CC(C)NCC(C(=O)N1CCN(c2ncnc3c2C(C)CC3O)CC1)c1ccc(Cl)cc1
active: viability, T/C (second compound 0.3 µM, first compound 0.316 µM) 6.08% | viability, T/C (second compound 0.3 µM, first compound 1 µM) 1.93% | viability, T/C (second compound 0.3 µM, first compound 3.16 µM) 1.83% | viability, T/C (second compound 0.3 µM, first compound 10 µM) 8.83% | viability, T/C (second compound 0.949 µM, first compound 0.316 µM) 2.85% | viability, T/C (second compound 0.949 µM, first compound 1 µM) 1.56% | viability, T/C (second compound 0.949 µM, first compound 3.16 µM) 0.98% | viability, T/C (second compound 0.949 µM, first compound 10 µM) 2.06% | viability, T/C (second compound 3 µM, first compound 0.1 µM) 8.97% | viability, T/C (second compound 3 µM, first compound 0.316 µM) 1.74% | viability, T/C (second compound 3 µM, first compound 1 µM) 1.17% | viability, T/C (second compound 3 µM, first compound 3.16 µM) 0.79% | viability, T/C (second compound 3 µM, first compound 10 µM) 0.99% | viability, T/C (second compound 9.49 µM, first compound 0.1 µM) 1.27% | viability, T/C (second compound 9.49 µM, first compound 0.316 µM) 1.2% | viability, T/C (second compound 9.49 µM, first compound 1 µM) 0.7% | viability, T/C (second compound 9.49 µM, first compound 3.16 µM) 0.6% | viability, T/C (second compound 9.49 µM, first compound 10 µM) 0.64% | viability, T/C (second compound 30 µM, first compound 0.0316 µM) 0.69% | viability, T/C (second compound 30 µM, first compound 0.1 µM) 0.56% | viability, T/C (second compound 30 µM, first compound 0.316 µM) 0.78% | viability, T/C (second compound 30 µM, first compound 1 µM) 0.44% | viability, T/C (second compound 30 µM, first compound 3.16 µM) 0.34% | viability, T/C (second compound 30 µM, first compound 10 µM) 0.42%
41.2 nM: IC50 (second compound 0.949 µM)
< 31.6 nM: IC50 (second compound 3 µM) | IC50 (second compound 9.49 µM) | IC50 (second compound 30 µM)
inactive: viability, T/C (second compound 0.3 µM, first compound 0.0316 µM) 61% | viability, T/C (second compound 0.3 µM, first compound 0.1 µM) 27.1% | viability, T/C (second compound 0.949 µM, first compound 0.0316 µM) 58.6% | viability, T/C (second compound 0.949 µM, first compound 0.1 µM) 21% | viability, T/C (second compound 3 µM, first compound 0.0316 µM) 29.6% | viability, T/C (second compound 9.49 µM, first compound 0.0316 µM) 12.7%
46 nM: IC50 (second compound 0.3 µM)

Cn1cnc2c(F)c(Nc3ccc(Br)cc3Cl)c(C(=O)NOCCO)cc21 + CC(C)NCC(C(=O)N1CCN(c2ncnc3c2C(C)CC3O)CC1)c1ccc(Cl)cc1
< 9.49 nM: IC50 (second compound 30 µM)
77.9 nM: IC50 (second compound 0.949 µM)
inactive: viability, T/C (second compound 0.3 µM, first compound 0.00949 µM) 92.9% | viability, T/C (second compound 0.3 µM, first compound 0.03 µM) 83.4% | viability, T/C (second compound 0.3 µM, first compound 0.0949 µM) 48.7% | viability, T/C (second compound 0.3 µM, first compound 0.3 µM) 13.6% | viability, T/C (second compound 0.949 µM, first compound 0.00949 µM) 85.7% | viability, T/C (second compound 0.949 µM, first compound 0.03 µM) 76.6% | viability, T/C (second compound 0.949 µM, first compound 0.0949 µM) 45% | viability, T/C (second compound 3 µM, first compound 0.00949 µM) 77% | viability, T/C (second compound 3 µM, first compound 0.03 µM) 76.2% | viability, T/C (second compound 3 µM, first compound 0.0949 µM) 26.3% | viability, T/C (second compound 9.49 µM, first compound 0.00949 µM) 63% | viability, T/C (second compound 9.49 µM, first compound 0.03 µM) 30.6% | viability, T/C (second compound 30 µM, first compound 0.00949 µM) 16.7%
91.3 nM: IC50 (second compound 0.3 µM)
54.8 nM: IC50 (second compound 3 µM)
active: viability, T/C (second compound 0.3 µM, first compound 0.949 µM) 1.29% | viability, T/C (second compound 0.3 µM, first compound 3 µM) 1.54% | viability, T/C (second compound 0.949 µM, first compound 0.3 µM) 3.97% | viability, T/C (second compound 0.949 µM, first compound 0.949 µM) 0.63% | viability, T/C (second compound 0.949 µM, first compound 3 µM) 0.7% | viability, T/C (second compound 3 µM, first compound 0.3 µM) 1.91% | viability, T/C (second compound 3 µM, first compound 0.949 µM) 0.35% | viability, T/C (second compound 3 µM, first compound 3 µM) 0.16% | viability, T/C (second compound 9.49 µM, first compound 0.0949 µM) 10.7% | viability, T/C (second compound 9.49 µM, first compound 0.3 µM) 0.42% | viability, T/C (second compound 9.49 µM, first compound 0.949 µM) 0.35% | viability, T/C (second compound 9.49 µM, first compound 3 µM) 0.17% | viability, T/C (second compound 30 µM, first compound 0.03 µM) 4.78% | viability, T/C (second compound 30 µM, first compound 0.0949 µM) 0.34% | viability, T/C (second compound 30 µM, first compound 0.3 µM) 0.25% | viability, T/C (second compound 30 µM, first compound 0.949 µM) 0.15% | viability, T/C (second compound 30 µM, first compound 3 µM) 0.13%
15.1 nM: IC50 (second compound 9.49 µM)
